Laboratory results reported in ChEMBL document CHEMBL1201862, “PubChem BioAssay data set” (2004).
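A five-concentration, 48-hour dose response in 96-well plates underlies each endpoint, interpolated linearly between surrounding concentrations. GI50 = concentration required for 50% inhibition of growth.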 The source made the active and inactive calls. Cut-off read from the data, not from the text of the source: active = GI50 up to about 1.1 µM and inactive = higher.

What was measured:
Experiment in all cases: inhibition of tumour cell growth, NCI panel, 48 h
[1] = tested on: PC-3
[2] = tested on: OVCAR-3
[3] = tested on: HCC 2998
[4] = tested on: UACC-62
[5] = tested on: SK-MEL-28
[6] = tested on: A498
[7] = tested on: BT-549
[8] = tested on: OVCAR-5
[9] = tested on: SF-268
[10] = tested on: MCF7
[11] = tested on: KM-20L2
[12] = tested on: KM12
[13] = tested on: SNB-75
[14] = tested on: DU-145
[15] = tested on: HOP-18
[16] = tested on: A549
[17] = tested on: HOP-62
[18] = tested on: HL-60
[19] = tested on: LXFL 529

Measured: GI50

COCC(C#N)NC1CC(OC2CC(O)(C(=O)CO)Cc3c(O)c4c(c(O)c32)C(=O)c2c(OC)cccc2C4=O)OC(C)C1O (centres undefined)
active: [1] 94.2 nM | [2] 153 nM | [3] 145 nM | [4] 57.4 nM | [5] 156 nM | [6] 38.3 nM | [7] 138 nM | [8] 247 nM | [9] 41.9 nM | [10] < 10 nM | [11] 191 nM | [12] 103 nM | [13] 56.4 nM | [14] 41.2 nM | [15] 125 nM | [16] 52.1 nM | [17] 28.7 nM | [18] 19.3 nM | [19] 83 nM
